According to US9067898B1, “Isothiazole derivatives as GPR120 agonists for the treatment of type II diabetes” (Janssen Pharmaceutica NV, priority 2014, dated 2015):

Legend:
[1] = molecular target: T1, long form of human GPR120 (Homo sapiens, UniProt Q5NUL3); test: Human GPR120 DiscoveRx PathHunter Beta-Arrestin assay, Procedure β-arrestin A; type: cell-based; settings: PathHunter CHO-K1 GPR120 β-Arrestin cell line, 3000 cells per well, read-out: hGPR120 β-arrestin A EC50
T1 construct: host or cells: PathHunter CHO-K1 GPR120 β-Arrestin Cell Line
Description: The binding of an agonist (medium/long chain fatty acids or small molecule agonists) to the G-protein-coupled receptor GPR120 activates phospholipase C, leading to release of intracellular Ca^+2 through the generation of inositol 1,4,5-trisphosphate (InsP3 or IP3). GPR120 activation can also trigger intracellular signaling via recruitment of Beta-Arrestin. In the present method, agonist-induced activation of the human GPR120 receptor is monitored through the use of PathHunter CHO-K1 GPR120 Beta-Arrestin Cell Line engineered by DiscoveRx, as detailed below. The cell lines are designed to co-express both the ProLink/Enzyme Donor (PK)-tagged GPCR and the Enzyme […] (EA)-tagged Beta-Arrestin fusion proteins. Upon GPR120 receptor stimulation/activation, the EA-tagged Beta-Arrestin portion is translocated to the tagged receptor, where the two enzyme fragments are brought within close proximity. Under these conditions, these fragments can interact and form an active Beta-gal enzyme complex through Enzyme Fragment Complementation (EFC). This active Beta-gal complex can enzymatically hydrolyse the substrate to produce a detectable light signal; therefore, activation as a function of agonist concentration can be expressed as an EC50 value to determine relative compound activities. This in vitro assay therefore serves to assess compound agonist activity of the GPR120. Procedure β-Arrestin A: In Procedure β-arrestin A, the cell used were PathHunter CHO-K1 GPR120 β-Arrestin Cell Line, expressing the long form of human GPR120 (Genbank accession number NM 181745), with 3000 cells per well. Procedure β-Arrestin B: In Procedure 3-arrestin B the cells used were PathHunter CHO-K1 GPR120S β-Arrestin Cell Line, expressing the short form of the GPR120 receptor (Accession #NM_181745), with 5000 cells/well. Assay Procedure:
The selected CHO-K1 GPR120 β-Arrestin cells were cultured in Ham's F12 media supplemented with 10% fetal bovine serum (FBS), 1% Glutamine, lx p/s, 800 μg/mL G418 and 300 μg/mL Hygromycin B (for selection). Cell stocks were maintained and grown in a sub-confluent state using standard cell culture procedures. The day before the experiment, the cells were harvested with non-enzymatic cell dissociation buffer and re-suspended in complete growth media at the desired concentration. A Corning 384-plate was then seeded with the proper number of cells in a volume of 25 μL, per well. The seeded plates were incubated overnight at 37° C.
On the day of the experiment, the Assay Buffer containing (a) HBSS with Ca^++ and Mg^++, (b) 20 mM HEPES, and (c) 0.1% BSA stabilizer (pH 7.4) was prepared. The growth medium was gently removed from the cell plates and 20 μL of Assay Buffer added to each well. The plate was then incubated at 37° C. for 60 min. Test compounds were serially diluted in Assay Buffer to desired concentrations (more particularly to one or more of the following μM concentrations: 25, 12.5, 6.25, 3.125, 1.5625, 0.78125, 0.390625, 0.1953125, 0.09765625, 0.048828125, 0.024414063, 0.012207031). Five μL of compound dilution was then added to each well and the plate incubated at 37° C. for 90 min. The detection reagents were prepared according to the manufacture's instruction. Twelve μL of the detection reagents were added to each well and the plate incubated at room temperature for 60 min.
The plates were read on an EnVision instrument, using Protocol name: Luminescence, Plate type: 384 Costar, Measurement height: 3 mm, Measurement time: 1 s, Aperture: 384 Plate aperture. The % activity relative to the positive control was calculated using the following equation:
The % Activity values were plotted versus the concentration of test compound and fitted to a sigmoidal dose-response curve with a Hill slope=1 (fixed value) using nonlinear regression with GraphPad Prism 5.0 to calculate the EC50 values. […]

Human GPR120 short form = molecular target: T2, Human GPR120 short form (Homo sapiens, UniProt Q5NUL3); test: Human GPR120 calcium flux assay (FLIPR), Procedure Calcium A; type: cell-based; settings: HEK-293 cells expressing human GPR120 short form, 2500 cells/well; read-out: GPR120 Ca2+ Assay A EC50
T2 construct: expressed in transfected cells
T2 sequence (Q5NUL3 1-361): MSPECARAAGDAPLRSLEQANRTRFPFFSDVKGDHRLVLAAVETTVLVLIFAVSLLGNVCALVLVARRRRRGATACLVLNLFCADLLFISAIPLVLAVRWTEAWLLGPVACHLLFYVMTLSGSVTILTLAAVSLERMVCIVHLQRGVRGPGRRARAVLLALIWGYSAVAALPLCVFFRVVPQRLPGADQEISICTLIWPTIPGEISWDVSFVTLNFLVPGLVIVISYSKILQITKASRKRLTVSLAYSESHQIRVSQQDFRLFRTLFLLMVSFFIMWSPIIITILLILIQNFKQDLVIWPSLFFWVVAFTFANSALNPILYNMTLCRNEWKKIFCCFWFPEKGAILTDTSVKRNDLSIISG
In short: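 HEK293 cells stably expressing the short isoform (NM_001195755.1), 2500/well, starved 1 h, then loaded with Fluo-4 NW plus probenecid (30 min 37 °C, 15 min RT). Compound solutions 0.012–100 μM, 0.2% DMSO final; FLIPR read 300 s after addition. EC50 from Fmax−Fmin fitted to variable-slope sigmoid (Hill <2).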

T1 sequence (Q5NUL3 1-377 isoform Q5NUL3-1): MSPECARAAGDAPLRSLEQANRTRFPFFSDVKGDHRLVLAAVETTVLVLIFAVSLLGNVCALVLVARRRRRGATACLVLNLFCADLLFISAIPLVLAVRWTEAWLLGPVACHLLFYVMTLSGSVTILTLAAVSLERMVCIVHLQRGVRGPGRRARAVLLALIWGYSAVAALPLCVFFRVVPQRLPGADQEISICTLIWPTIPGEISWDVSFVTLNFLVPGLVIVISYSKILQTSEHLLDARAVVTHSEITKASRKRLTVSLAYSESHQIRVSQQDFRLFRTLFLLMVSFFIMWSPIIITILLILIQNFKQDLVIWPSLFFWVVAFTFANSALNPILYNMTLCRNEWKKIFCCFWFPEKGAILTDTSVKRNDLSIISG
T1 sequence (P32121 whole entry partner): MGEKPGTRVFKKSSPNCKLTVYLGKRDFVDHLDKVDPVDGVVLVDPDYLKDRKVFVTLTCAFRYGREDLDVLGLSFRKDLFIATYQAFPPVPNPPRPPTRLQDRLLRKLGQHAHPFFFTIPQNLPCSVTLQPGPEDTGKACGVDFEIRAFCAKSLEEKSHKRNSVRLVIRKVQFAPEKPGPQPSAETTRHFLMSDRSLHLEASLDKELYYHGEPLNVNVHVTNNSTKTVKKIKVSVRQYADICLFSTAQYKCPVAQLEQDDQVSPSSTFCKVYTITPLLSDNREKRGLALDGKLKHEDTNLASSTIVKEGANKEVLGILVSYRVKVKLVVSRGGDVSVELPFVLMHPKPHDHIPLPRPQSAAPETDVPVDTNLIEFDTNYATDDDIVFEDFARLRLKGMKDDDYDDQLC

Row | EC50 [1] | EC50 (Human GPR120 short form) | Compound
1 | 474 nM | 1020 nM | CC(CO)Cc1cc(F)c(OCc2c(-c3ccc(Cl)cc3)nsc2C(F)(F)F)c(F)c1 (stereo not shown) [Cpd 230, 3-(4-[[3-(4-chlorophenyl)-5-(trifluoromethyl)-1,2-thiazol-4-yl]methoxy]-3,5-difluorophenyl)-2-methylpropan-1-ol]
2 | 1340 nM | 217 nM | Cc1c(CCC(=O)O)ccc(OCc2csnc2-c2ccc(Cl)cc2)c1C [Cpd 166, 3-(4-((3-(4-chlorophenyl)isothiazol-4-yl)methoxy)-2,3-dimethylphenyl)propanoic acid]
3 | 246 nM | 51 nM | CCc1ccc(-c2nsc(C(F)(F)F)c2COc2c(F)cc(CC(C)C(=O)O)cc2F)cc1 (stereo not shown) [Cpd 80, 3-(4-[[3-(4-ethylphenyl)-5-(trifluoromethyl)-1,2-thiazol-4-yl]methoxy]-3,5-difluorophenyl)-2-methylpropanoic acid]
4 | 81 nM | 67 nM | Cc1c(CCC(=O)O)ccc(OCc2c(Cl)nsc2-c2ccc(Cl)cc2)c1C [Cpd 88, 3-(4-[[3-chloro-5-(4-chlorophenyl)-1,2-thiazol-4-yl]methoxy]-2,3-dimethylphenyl)propanoic acid]
5 | 116 nM | 200 nM | 3-(4-((3-chloro-5-(4-ethylphenyl)isothiazol-4-yl)methoxy)-2,3,5-trifluorophenyl)propan-1-ol [Cpd 140]
6 | 70 nM | 104 nM | Cc1ccc(-c2nsc(C(F)(F)F)c2COc2c(F)cc(CCC(=O)O)cc2F)cc1 [Cpd 115, 3-(3,5-difluoro-4-[[3-(4-methylphenyl)-5-(trifluoromethyl)-1,2-thiazol-4-yl]methoxy]phenyl) propanoic acid]
7 | 591 nM | 147 nM | CCc1ccc(-c2cscc2COc2ccc(CCC(=O)O)c(F)c2F)cc1 [Cpd 43, 3-(4-((4-(4-ethylphenyl)thiophen-3-yl)methoxy)-2,3-difluorophenyl)propanoic acid]
8 | 490 nM | 268 nM | O=C(O)CCc1cc(F)c(OCc2csnc2-c2ccc(Cl)cc2)c(F)c1 [Cpd 179, 3-(4-((3-(4-chlorophenyl)isothiazol-4-yl)methoxy)-3,5-difluorophenyl)propanoic acid]
9 | 100 nM | 171 nM | O=C(O)CCc1cc(F)c(OCc2c(-c3ccc(Cl)cc3)csc2C(F)(F)F)c(F)c1F [Cpd 50, 3-(4-((4-(4-chlorophenyl)-2-(trifluoromethyl)thiophen-3-yl)methoxy)-2,3,5-trifluorophenyl)propanoic acid]
10 | 31 nM | 48 nM | CCc1ccc(-c2sc(C)c(C(F)(F)F)c2COc2c(F)cc(CCCO)cc2F)cc1 [Cpd 32, 3-(4-[[2-(4-ethylphenyl)-5-methyl-4-(trifluoromethyl)thiophen-3-yl]methoxy]-3,5-difluorophenyl)propan-1-ol]
11 | 456 nM | 152 nM | O=C(O)CCc1cc(F)c(OCc2c(-c3ccc4c(c3)OCO4)csc2C(F)(F)F)c(F)c1 [Cpd 44, 3-(4-((4-(benzo[d][1,3]dioxol-5-yl)-2-(trifluoromethyl)thiophen-3-yl)methoxy)-3,5-difluorophenyl)propanoic acid]
12 | 123 nM | 154 nM | COc1ccc(-c2csc(C(F)(F)F)c2COc2c(F)cc(CCCO)cc2F)cc1 [Cpd 45, 3-(3,5-difluoro-4-((4-(4-methoxyphenyl)-2-(trifluoromethyl)thiophen-3-yl)methoxy)phenyl)propan-1-ol]
13 | 303 nM | 111 nM | COc1nsc(-c2ccc(C)cc2F)c1COc1c(F)cc(CCC(=O)O)cc1F [Cpd 123, 3-(3,5-difluoro-4-[[5-(2-fluoro-4-methylphenyl)-3-methoxy-1,2-thiazol-4-yl]methoxy]phenyl) propanoic acid]
14 | 540 nM | 551 nM | Cc1cc(OCc2c(-c3ncc(Cl)cc3F)nsc2C(F)(F)F)c(F)cc1CCC(=O)O [Cpd 206, 3-(4-((3-(5-chloro-3-fluoropyridin-2-yl)-5-(trifluoromethyl)isothiazol-4-yl)methoxy)-5-fluoro-2-methylphenyl)propanoic acid]
15 | 71 nM | 101 nM | COc1ccc(-c2csc(C(F)(F)F)c2COc2c(F)cc(CCCO)cc2F)cn1 [Cpd 38, 3-(3,5-difluoro-4-((4-(6-methoxypyridin-3-yl)-2-(trifluoromethyl)thiophen-3-yl)methoxy)phenyl)propan-1-61]
16 | 191 nM | 61 nM | CCc1ccc(-c2cc(Cl)sc2COc2ccc(CCC(=O)O)c(C)c2C)cc1 [Cpd 5, 3-(4-[[5-chloro-3-(4-ethylphenyl)thiophen-2-yl]methoxy]-2,3-dimethylphenyl)propanoic acid]
17 | 813 nM | 225 nM | Cc1c(CCC(=O)O)ccc(OCc2csnc2-c2ccc(Br)cc2)c1C [Cpd 170, 3-(4-((3-(4-bromophenyl)isothiazol-4-yl)methoxy)-2,3-dimethylphenyl)propanoic acid]
18 | 108 nM | 237 nM | OCCCc1cc(F)c(OCc2c(-c3ccc(Cl)cc3)csc2C(F)(F)F)c(F)c1F [Cpd 56, 3-(4-((4-(4-chlorophenyl)-2-(trifluoromethyl)thiophen-3-yl)methoxy)-2,3,5-trifluorophenyl)propan-1-ol]
19 | 242 nM | 165 nM | Cc1cc(OCc2c(-c3ccc(Cl)c(F)c3)nsc2C(F)(F)F)c(F)cc1CCC(=O)O [Cpd 148, 3-(4-((3-(4-chloro-3-fluorophenyl)-5-(trifluoromethyl)isothiazol-4-yl)methoxy)-5-fluoro-2-methylphenyl)propanoic acid]
20 | 270 nM | 70 nM | O=C(O)CCc1cc(F)c(OCc2c(-c3ccc(Cl)cc3)csc2C(F)(F)F)c(F)c1 [Cpd 35, 3-(4-((4-(4-chlorophenyl)-2-(trifluoromethyl)thiophen-3-yl)methoxy)-3,5-difluorophenyl)propanoic acid]
21 | 125 nM | 135 nM | CCc1ccc(-c2cc(F)sc2COc2ccc(CCC(=O)O)c(F)c2F)cc1 [Cpd 12, 3-(4-[[3-(4-ethylphenyl)-5-fluorothiophen-2-yl]methoxy]-2,3-difluorophenyl)propanoic acid]
22 | 58 nM | 134 nM | CCc1ccc(-c2nsc(C(F)(F)F)c2COc2c(F)cc(CCCO)cc2F)cc1 [Cpd 135, 3-(4-((3-(4-ethylphenyl)-5-(trifluoromethyl)isothiazol-4-yl)methoxy)-3,5-difluorophenyl)propan-1-61]

Row | Compound | EC50 [1] | EC50 (Human GPR120 short form)
23 | 3-(4-[[2-(4-chlorophenyl)-5-methyl-4-(trifluoromethyl)thiophen-3-yl]methoxy]-3,5-difluorophenyl)propanoic acid [Cpd 40] | 650 nM | 129 nM
